ChEMBL document CHEMBL5725824, “Aminochromane, aminothiochromane and amino-1,2,3,4-tetrahydroquinoline derivatives, pharmaceutical compositions containing them, and their use in therapy” (2017)

Target: Sodium- and chloride-dependent glycine transporter 1 (Homo sapiens) (UniProt P48067)
Experiment: Radioligand Binding Assay: 1. [3H]-Glycine uptake into recombinant CHO cells expressing human GlyT1: Human GlyT1c expressing recombinant hGlyT1c_5_CHO cells were plated at 20,000 cells per well in 96 well Cytostar-T scintillation microplates (Amersham Biosciences) and cultured to sub-confluency for 24 h. For glycine uptake assays the culture medium was aspirated and the cells were washed once …

Chain of Sodium- and chloride-dependent glycine transporter 1 (Homo sapiens) (P48067 whole entry, looked up): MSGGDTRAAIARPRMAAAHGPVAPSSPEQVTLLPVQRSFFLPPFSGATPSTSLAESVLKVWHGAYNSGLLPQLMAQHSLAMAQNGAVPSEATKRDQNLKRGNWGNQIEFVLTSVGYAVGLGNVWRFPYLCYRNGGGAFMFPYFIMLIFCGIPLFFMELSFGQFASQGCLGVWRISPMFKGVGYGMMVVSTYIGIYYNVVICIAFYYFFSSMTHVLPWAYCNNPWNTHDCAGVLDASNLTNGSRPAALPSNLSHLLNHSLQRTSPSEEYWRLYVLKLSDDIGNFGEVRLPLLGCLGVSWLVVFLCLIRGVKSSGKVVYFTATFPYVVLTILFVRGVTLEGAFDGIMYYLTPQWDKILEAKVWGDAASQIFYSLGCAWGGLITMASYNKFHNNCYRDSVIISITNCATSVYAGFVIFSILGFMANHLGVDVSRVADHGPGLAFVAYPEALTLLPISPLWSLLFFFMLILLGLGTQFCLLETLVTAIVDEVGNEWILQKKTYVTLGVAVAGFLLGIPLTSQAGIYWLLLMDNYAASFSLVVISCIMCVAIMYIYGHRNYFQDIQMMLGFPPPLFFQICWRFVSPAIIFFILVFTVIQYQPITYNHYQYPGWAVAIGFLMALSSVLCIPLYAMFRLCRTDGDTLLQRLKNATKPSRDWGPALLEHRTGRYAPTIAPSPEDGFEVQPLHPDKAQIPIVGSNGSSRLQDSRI

- Ki: < 10 nM
SMILES: CNC1COc2ccc(N3CC(NS(=O)(=O)CC4CC4)C3)cc2C1Cc1ccccc1 (cis isomer)
